IC50 data for 11 compounds are collected here from patent publication US11407767B2, “Heterocyclyl substituted pyrrolopyridines that are inhibitors of the CDK12 kinase” (The University of Nottingham, priority 2017, dated 2022).

For one assay, the target named is CDK12/CycK (Homo sapiens, UniProt Q9NYV4). Briefly: Inhibition of CDK12 (ADP-Glo kinase assay). To be noted: 60 nM CDK12/CycK, 30 minutes pre-incubation, 1 μM ATP, 0.5 μM RBER-IRStide substrate, 1 h at 25° C., read-out: CDK12/cyclin K IC50. Format: biochemical. The essentials: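 Compounds pre-incubated 30 min with 60 nM CDK12/CycK in HEPES pH 7.5 buffer with Mg2+/Mn2+, 1% DMSO final. Reaction started with 1 μM ATP and 0.5 μM RBER-IRStide, run 1 h at 25 °C; ADP-Glo luminescence, no-kinase blank subtracted, IC50 from sigmoidal fit of % inhibition.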
In general terms: ADP-Glo first removes unused ATP, then detects ADP through luciferase.

Another assay concerns DM1 fibroblasts. Briefly: Nuclear foci assay. Format: cell-based. To be noted: Fibroblast; DM1 fibroblasts treated for 24 hours, 11 point dilution 20 μM-19 nM, in situ hybridisation with cy3 labelled CAG10 probe. The essentials: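 DM1 fibroblasts exposed to compounds for 24 hours over an 11-point series, 20 μM-19 nM. Nuclear foci visualised by FISH with a cy3-labelled CAG10 probe and quantified by automated imaging. Concentration-dependent foci reduction judged against DMSO-treated cells.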

Chain of CDK12/CycK (Q9NYV4 whole entry): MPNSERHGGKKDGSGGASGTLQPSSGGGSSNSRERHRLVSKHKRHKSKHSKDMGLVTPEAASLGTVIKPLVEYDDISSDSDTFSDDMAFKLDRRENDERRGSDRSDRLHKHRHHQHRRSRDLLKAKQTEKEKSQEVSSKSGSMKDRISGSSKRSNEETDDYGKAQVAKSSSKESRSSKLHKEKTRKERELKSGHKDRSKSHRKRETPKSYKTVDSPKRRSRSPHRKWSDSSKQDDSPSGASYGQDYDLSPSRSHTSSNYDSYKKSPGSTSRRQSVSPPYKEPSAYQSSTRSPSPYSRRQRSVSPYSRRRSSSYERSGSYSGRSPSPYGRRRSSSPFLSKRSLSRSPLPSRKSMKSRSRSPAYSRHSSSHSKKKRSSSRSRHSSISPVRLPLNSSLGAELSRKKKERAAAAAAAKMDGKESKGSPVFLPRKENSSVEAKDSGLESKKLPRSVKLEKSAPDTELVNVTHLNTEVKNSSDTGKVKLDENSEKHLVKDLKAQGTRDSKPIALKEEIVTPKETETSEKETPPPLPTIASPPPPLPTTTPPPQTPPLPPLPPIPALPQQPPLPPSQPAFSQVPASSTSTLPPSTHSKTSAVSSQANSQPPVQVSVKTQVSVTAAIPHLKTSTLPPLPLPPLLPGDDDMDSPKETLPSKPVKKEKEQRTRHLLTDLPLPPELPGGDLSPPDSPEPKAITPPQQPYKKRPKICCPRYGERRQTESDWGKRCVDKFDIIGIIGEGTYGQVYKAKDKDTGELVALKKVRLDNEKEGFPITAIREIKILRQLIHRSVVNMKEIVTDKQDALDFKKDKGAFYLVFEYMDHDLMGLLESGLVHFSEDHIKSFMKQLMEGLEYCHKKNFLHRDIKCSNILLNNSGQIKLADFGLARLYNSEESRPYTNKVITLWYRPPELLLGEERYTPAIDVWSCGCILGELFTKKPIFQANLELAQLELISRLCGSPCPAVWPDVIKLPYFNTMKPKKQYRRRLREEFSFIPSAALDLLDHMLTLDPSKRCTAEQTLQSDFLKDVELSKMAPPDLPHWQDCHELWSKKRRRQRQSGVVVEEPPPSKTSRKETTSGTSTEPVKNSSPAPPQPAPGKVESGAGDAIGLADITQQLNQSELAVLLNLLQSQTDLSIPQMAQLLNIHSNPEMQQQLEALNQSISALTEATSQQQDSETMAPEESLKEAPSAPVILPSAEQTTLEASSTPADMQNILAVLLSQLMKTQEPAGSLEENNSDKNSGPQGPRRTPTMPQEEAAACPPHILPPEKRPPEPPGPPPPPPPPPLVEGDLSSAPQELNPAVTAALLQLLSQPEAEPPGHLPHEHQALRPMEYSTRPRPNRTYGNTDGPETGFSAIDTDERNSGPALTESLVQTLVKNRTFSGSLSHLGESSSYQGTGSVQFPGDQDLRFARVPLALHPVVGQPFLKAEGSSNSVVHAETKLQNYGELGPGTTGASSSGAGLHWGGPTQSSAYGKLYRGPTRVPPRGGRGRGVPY
Chain of CDK12/CycK (O75909 whole entry partner): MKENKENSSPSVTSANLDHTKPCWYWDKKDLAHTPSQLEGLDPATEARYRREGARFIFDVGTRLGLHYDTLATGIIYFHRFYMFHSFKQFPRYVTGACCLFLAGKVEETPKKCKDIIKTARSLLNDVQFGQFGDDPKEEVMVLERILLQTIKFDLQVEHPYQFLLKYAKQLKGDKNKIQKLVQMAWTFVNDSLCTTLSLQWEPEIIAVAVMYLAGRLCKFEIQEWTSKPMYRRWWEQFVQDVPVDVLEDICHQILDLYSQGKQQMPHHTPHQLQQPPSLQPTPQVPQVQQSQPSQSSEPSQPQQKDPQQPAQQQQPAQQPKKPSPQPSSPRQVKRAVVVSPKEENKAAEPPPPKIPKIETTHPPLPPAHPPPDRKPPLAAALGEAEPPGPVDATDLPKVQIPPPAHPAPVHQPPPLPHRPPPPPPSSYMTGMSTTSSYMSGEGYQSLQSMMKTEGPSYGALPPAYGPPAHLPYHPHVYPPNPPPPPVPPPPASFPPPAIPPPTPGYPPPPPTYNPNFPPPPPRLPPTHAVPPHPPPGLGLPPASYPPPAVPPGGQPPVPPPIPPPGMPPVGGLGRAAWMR

For the compound `O=C(CCl)Nc1cccc(C(=O)N2CC[C@@H](c3cc4c(-c5cnn6ncccc56)ccnc4[nH]3)C2)c1` [Example 159, (R)-2-Chloro-N-(3-(3-(4-(pyrazolo[1,5-b]pyridazin-3-yl)-1H-pyrrolo[2,3-b]pyridin-2-yl)pyrrolidine-1-carbonyl)phenyl)acetamide], the IC50 on CDK12/CycK was under 0.1 µM; in the assay with DM1 fibroblasts it was under 1 µM.
On the same counts, the results for `O=C(CCl)Nc1cccc(C(=O)N2CC[C@H](c3cc4c(-c5cnn6ncccc56)ccnc4[nH]3)C2)c1` [Example 160, (S)-2-Chloro-N-(3-(3-(4-(pyrazolo[1,5-b]pyridazin-3-yl)-1H-pyrrolo[2,3-b]pyridin-2-yl)pyrrolidine-1-carbonyl)phenyl)acetamide] are under 0.1 µM and under 1 µM.
In the same order, the values of `C=CC(=O)N1CCC[C@H]1C(=O)N1CC[C@@H](c2cc3c(-c4cnn5ncccc45)ccnc3[nH]2)C1` [Example 161, 1-((S)-2-((R)-3-(4-(Pyrazolo[1,5-b]pyridazin-3-yl)-1H-pyrrolo[2,3-b]pyridin-2-yl)pyrrolidine-1-carbonyl)pyrrolidin-1-yl)prop-2-en-1-one] are 0.1 to 1 µM and under 1 µM.
For the compound `CN(C)C/C=C/C(=O)Nc1cccc(C(=O)NCCc2cc3c(-c4cnn5ncccc45)ccnc3[nH]2)c1` [Example 200, (E)-3-(4-(Dimethylamino)but-2-enamido)-N-(2-(4-(pyrazolo[1,5-b]pyridazin-3-yl)-1H-pyrrolo[2,3-b]pyridin-2-yl)ethyl)benzamide], the IC50 at CDK12/CycK fell in the range of 0.1 to 1 µM; in the assay on DM1 fibroblasts, 10 to 100 µM.
On the same counts, the results for `C=CC(=O)Nc1cc(C(=O)N2CCC(c3cc4c(-c5cnn6ncccc56)ccnc4[nH]3)C2)ccc1OC` (stereo not shown) [Example 204, N-(2-Methoxy-5-(3-(4-(pyrazolo[1,5-b]pyridazin-3-yl)-1H-pyrrolo[2,3-b]pyridin-2-yl)pyrrolidine-1-carbonyl)phenyl)acrylamide] are under 0.1 µM and under 1 µM.
With `C=CC(=O)N1C[C@H](F)C[C@H]1C(=O)NCCc1cc2c(-c3cnn4ncccc34)ccnc2[nH]1` [Example 207, (2S,4R)-1-Acryloyl-4-fluoro-N-(2-(4-(pyrazolo[1,5-b]pyridazin-3-yl)-1H-pyrrolo[2,3-b]pyridin-2-yl)ethyl)pyrrolidine-2-carboxamide], the IC50 was under 0.1 µM on CDK12/CycK and under 1 µM in the assay on DM1 fibroblasts.
For `C=CC(=O)N1CC2(CC2)C[C@H]1C(=O)NCCc1cc2c(-c3cnn4ncccc34)ccnc2[nH]1` [Example 208, (S)-5-Acryloyl-N-(2-(4-(pyrazolo[1,5-b]pyridazin-3-yl)-1H-pyrrolo[2,3-b]pyridin-2-yl)ethyl)-5-azaspiro[2.4]heptane-6-carboxamide], the IC50 at CDK12/CycK is under 0.1 µM; in the assay on DM1 fibroblasts it was 1 to 10 µM.
On the same counts, the results for `N#CN1CCC[C@H](C(=O)NCCc2cc3c(-c4cnn5ncccc45)ccnc3[nH]2)C1` [Example 210, (S)-1-cyano-N-(2-(4-(pyrazolo[1,5-b]pyridazin-3-yl)-1H-pyrrolo[2,3-b]pyridin-2-yl)ethyl)piperidine-3-carboxamide] are 0.1 to 1 µM and 1 to 10 µM.
In the same order, the values of `C=CC(=O)NC(Cc1ccccc1)C(=O)NCCc1cc2c(-c3cnn4ncccc34)ccnc2[nH]1` (stereo not shown) [Example 211, N-(1-Oxo-3-phenyl-1-((2-(4-(pyrazolo[1,5-b]pyridazin-3-yl)-1H-pyrrolo[2,3-b]pyridin-2-yl)ethyl)amino)propan-2-yl)acrylamide] are 0.1 to 1 µM and 1 to 10 µM.
On to `C=CC(=O)NC(C)C(=O)NCCc1cc2c(-c3cnn4ncccc34)ccnc2[nH]1` (stereo not shown) [Example 212, N-(1-oxo-1-((2-(4-(pyrazolo[1,5-b]pyridazin-3-yl)-1H-pyrrolo[2,3-b]pyridin-2-yl)ethyl)amino)propan-2-yl)acrylamide], for which the IC50 at CDK12/CycK is 0.1 to 1 µM; with DM1 fibroblasts, 1 to 10 µM.
In the same order, the values of `C=CC(=O)N1CCC[C@H]1C(=O)OCCc1cc2c(-c3cnn4ncccc34)ccnc2[nH]1` [Example 213, 2-(4-(Pyrazolo[1,5-b]pyridazin-3-yl)-1H-pyrrolo[2,3-b]pyridin-2-yl)ethyl acryloyl-L-prolinate] are 0.1 to 1 µM and under 1 µM.
